Key:
[1] = test system: STEME; assay: Post-emergence action against STEME, 1.28 kg/ha; assay type: in vivo, Stellaria media; conditions: dosage 1280 g/ha, visual rating about 3 weeks after treatment vs untreated controls (100% = plants died)
Procedure, shortened: (§1)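 Activity scored visually roughly 3 weeks after treatment against untreated plants (0% = as control, 100% = dead). Plants grown in sandy loam in greenhouse, treated at one-leaf stage, 2–3 weeks post-sowing, with WP/EC spray containing 0.5% additive at 600 l/ha.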

[2] = test system: DIGSA; assay: Pre-emergence action against DIGSA, 1280 g/ha; assay type: in vivo, Digitaria sanguinalis; conditions: visual scoring after about 3 weeks vs untreated controls, 100% = plants have died, 0% = like control plants
Procedure, shortened: (§2)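 Compound applied as WP or EC in aqueous spray (0.5% additive, 600 L/ha) to the surface of sandy loam covering freshly sown seeds. After about 3 weeks under good greenhouse conditions, damage is given as visual percentage, 100% meaning plant death.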

[3] = test system: SETVI; assay: Post-emergence action against SETVI, 1.28 kg/ha; assay type: in vivo, Setaria viridis; conditions: dosage 1280 g/ha, visual rating about 3 weeks after treatment vs untreated controls
Procedure, shortened: as §1

[4] = test system: DIGSA; assay: Post-emergence action against DIGSA, 1.28 kg/ha; assay type: in vivo, Digitaria sanguinalis; conditions: dosage 1280 g/ha, visual rating about 3 weeks after treatment vs untreated controls
Procedure, shortened: as §1

[5] = test system: KCHSC; assay: Pre-emergence action against KCHSC, 1280 g/ha; assay type: in vivo, Bassia scoparia; conditions: scored visually after about 3 weeks vs untreated controls (100% = plants have died)
Procedure, shortened: as §2

[6] = test system: VERPE; assay: Post-emergence action against VERPE, 1.28 kg/ha; assay type: in vivo, Veronica persica; conditions: dosage 1280 g/ha, visual rating about 3 weeks after treatment vs untreated controls (100% = plants died)
Procedure, shortened: as §1

[7] = test system: ECHCG; assay: Pre-emergence action against ECHCG, 1280 g/ha; assay type: in vivo, Echinochloa crus-galli; conditions: visual scoring after about 3 weeks vs untreated controls, 100% = plants have died, 0% = like control plants
Procedure, shortened: as §2

[8] = test system: LOLRI; assay: Pre-emergence action against LOLRI, 1280 g/ha; assay type: in vivo, Lolium rigidum; conditions: visual scoring after about 3 weeks vs untreated controls, 100% = plants have died, 0% = like control plants
Procedure, shortened: as §2

[9] = test system: POAAN; assay: Post-emergence action against POAAN, 1.28 kg/ha; assay type: in vivo, Poa annua; conditions: dosage 1280 g/ha, visual rating about 3 weeks after treatment vs untreated controls
Procedure, shortened: as §1

[10] = test system: MATIN; assay: Pre-emergence action against MATIN, 1280 g/ha; assay type: in vivo, Tripleurospermum inodorum (Matricaria inodora); conditions: scored visually after about 3 weeks vs untreated controls (100% = plants have died)
Procedure, shortened: as §2

[11] = test system: VERPE; assay: Pre-emergence action against VERPE, 1280 g/ha; assay type: in vivo, Veronica persica; conditions: scored visually after about 3 weeks vs untreated controls (100% = plants have died)
Procedure, shortened: as §2

[12] = test system: AMARE; assay: Post-emergence action against AMARE, 1.28 kg/ha; assay type: in vivo, Amaranthus retroflexus; conditions: dosage 1280 g/ha, visual rating about 3 weeks after treatment vs untreated controls (100% = plants died)
Procedure, shortened: as §1

[13] = test system: STEME; assay: Pre-emergence action against STEME, 1280 g/ha; assay type: in vivo, Stellaria media; conditions: scored visually after about 3 weeks vs untreated controls (100% = plants have died)
Procedure, shortened: as §2

[14] = test system: AMARE; assay: Pre-emergence action against AMARE, 1280 g/ha; assay type: in vivo, Amaranthus retroflexus; conditions: scored visually after about 3 weeks vs untreated controls (100% = plants have died)
Procedure, shortened: as §2

[15] = test system: ALOMY; assay: Pre-emergence action against ALOMY, 1280 g/ha; assay type: in vivo, Alopecurus myosuroides; conditions: visual scoring after about 3 weeks vs untreated controls, 100% = plants have died, 0% = like control plants
Procedure, shortened: as §2

[16] = test system: POAAN; assay: Pre-emergence action against POAAN, 1280 g/ha; assay type: in vivo, Poa annua; conditions: visual scoring after about 3 weeks vs untreated controls, 100% = plants have died, 0% = like control plants
Procedure, shortened: as §2

[17] = test system: SETVI; assay: Pre-emergence action against SETVI, 1280 g/ha; assay type: in vivo, Setaria viridis; conditions: visual scoring after about 3 weeks vs untreated controls, 100% = plants have died, 0% = like control plants
Procedure, shortened: as §2

[18] = test system: ALOMY; assay: Post-emergence action against ALOMY, 1.28 kg/ha; assay type: in vivo, Alopecurus myosuroides; conditions: dosage 1280 g/ha, visual rating about 3 weeks after treatment vs untreated controls
Procedure, shortened: as §1

[19] = test system: ABUTH; assay: Post-emergence action against ABUTH, 1.28 kg/ha; assay type: in vivo, Abutilon theophrasti; conditions: dosage 1280 g/ha, visual rating about 3 weeks after treatment vs untreated controls (100% = plants died)
Procedure, shortened: as §1

[20] = test system: ECHCG; assay: Post-emergence action against ECHCG, 1.28 kg/ha; assay type: in vivo, Echinochloa crus-galli; conditions: dosage 1280 g/ha, visual rating about 3 weeks after treatment vs untreated controls
Procedure, shortened: as §1

[21] = test system: MATIN; assay: Post-emergence action against MATIN, 1.28 kg/ha; assay type: in vivo, Tripleurospermum inodorum (Matricaria inodora); conditions: dosage 1280 g/ha, visual rating about 3 weeks after treatment vs untreated controls (100% = plants died)
Procedure, shortened: as §1

[22] = test system: ABUTH; assay: Pre-emergence action against ABUTH, 1280 g/ha; assay type: in vivo, Abutilon theophrasti; conditions: scored visually after about 3 weeks vs untreated controls (100% = plants have died)
Source text: 1. Pre-Emergence Herbicidal Effect and Crop Plant Compatibility a) Seeds of mono- and dicotyledonous weed plants are placed in plastic pots in sandy loam soil (doubly sown with one species each of mono- or dicotyledonous weed plants per pot) and covered with soil. The compounds of the invention, formulated in the form of wettable powders (WP) or as emulsion concentrates (EC), are then applied onto the surface of the covering soil as aqueous suspension or emulsion with addition of 0.5% additive at a water application rate equivalent to 600 litres per hectare. After the treatment, the pots are placed in a greenhouse and kept under good growth conditions for the trial plants. After about 3 weeks, the effect of the preparations is scored visually in comparison with untreated controls as percentages. For example, 100% activity=the plants have died, 0% activity=like control plants. 1. Pre-Emergence Effectiveness Tables 1 to 12 below show the effects of selected compounds of the general formula (I) according to Tables 1 and 2 on various harmful plants and at an application rate corresponding to 1280 g/ha, which were obtained by the experimental procedure mentioned above.

[23] = test system: KCHSC; assay: Post-emergence action against KCHSC, 1.28 kg/ha; assay type: in vivo, Bassia scoparia; conditions: dosage 1280 g/ha, visual rating about 3 weeks after treatment vs untreated controls (100% = plants died)
Procedure, shortened: as §1

[24] = test system: LOLRI; assay: Post-emergence action against LOLRI, 1.28 kg/ha; assay type: in vivo, Lolium rigidum; conditions: dosage 1280 g/ha, visual rating about 3 weeks after treatment vs untreated controls
Procedure, shortened: as §1

| Compound | Post-emergence action against STEME [1] [%] | Pre-emergence action against DIGSA [2] [%] | Post-emergence action against DIGSA [4] [%] | Pre-emergence action against KCHSC [5] [%] | Post-emergence action against VERPE [6] [%] | Pre-emergence action against ECHCG [7] [%] | Pre-emergence action against LOLRI [8] [%] | Post-emergence action against POAAN [9] [%] | Pre-emergence action against MATIN [10] [%] | Pre-emergence action against VERPE [11] [%] | Post-emergence action against AMARE [12] [%] | Pre-emergence action against STEME [13] [%] | Pre-emergence action against AMARE [14] [%] | Pre-emergence action against ALOMY [15] [%] | Pre-emergence action against POAAN [16] [%] | Pre-emergence action against SETVI [17] [%] | Post-emergence action against ALOMY [18] [%] | Post-emergence action against ABUTH [19] [%] | Post-emergence action against MATIN [21] [%] | Pre-emergence action against ABUTH [22] [%] | further results |
| --- | --- | --- | --- | --- | --- | --- | --- | --- | --- | --- | --- | --- | --- | --- | --- | --- | --- | --- | --- | --- | --- |
| O=C(O)C1CCCN1C(=O)COc1nn(-c2ccccc2F)c(-c2cncc(F)c2)c1Br (stereo not drawn) [Example X-039] | 100 | 90 | 90 | 100 | 100 | 90 | 90 | 100 | 100 | 100 | 90 | 90 | 100 | 90 | 100 | 90 | 90 | 100 | 100 | 90 | Post-emergence action against SETVI [3]: 100%; Post-emergence action against ECHCG [20]: 90%; Post-emergence action against KCHSC [23]: 90% |
| COC(=O)[C@@H](C)Oc1nn(-c2cc(F)ccc2F)c(-c2ccc(F)nc2)c1C#N [VII-099] | 100 | 100 | 100 | 100 | 100 | 100 | 100 | 100 | 100 | 100 | 100 | 100 | 100 | 90 | 100 | 100 | 100 | 90 | 100 | 90 | Post-emergence action against KCHSC [23]: 100%; Post-emergence action against LOLRI [24]: 100% |

— patent US12180187B2, “1-phenyl-5-azinylpyrazolyl-3-oxyalkyl acids and their use for controlling unwanted plant growth” (BAYER AKTIENGESELLSCHAFT, priority 2019, dated 2024)
